Oligonucleotides are written 5' to 3', each unit as a sugar letter and its base; * is a phosphorothioate linkage, no mark a phosphodiester; rarer units and linkages stand in square brackets, end groups in braces. Plain capitals give the bases only. d = 2'-deoxy (DNA)
Assays:
[1] = test system: AcpP::3xFLAG fusion protein; assay: Western blot of intracellular AcpP protein levels; assay type: cell-based, Salmonella SL1344 AcpP::3xFLAG; set-up: key to AcpP protein reduction: -: Effect strength is represented by additional (+) signs.; Effect strength is represented by additional (+) signs.; ++: Effect strength is represented by additional (+) signs.; +++: Effect strength is represented by additional (+) signs; details: for AcpP protein reduction: summary grade, KFF-ASO treatment (Figure 9); for AcpP protein level (in words): 5 µM KFF-ASO conjugate, 30, 60, 120, 240 min for PNA and PMO, 120 min for all other ASOs
Description: Salmonella wild type (WT) and SL1344 AcpP::3xFLAG (chromosmal fusion of full length acpP to 3XFLAG-tag as described earlier([47]); internal strain number JVS-12398) were grown overnight in non-cation adjusted MHB. Bacterial cultures were diluted 1:100, grown to OD600 0.5 and subsequently diluted to approximately 10^6 cfu/ml in MHB. Then, 1.9 ml of each diluted bacterial solution was transferred into 5 ml low-binding tubes, pre-incubated at 37 °C for 10 min and treated with 100 µl of ASOs to adjust a final concentration of 5 µM. Water was added as negative control. The treatment with PNA and PMO was performed with aeration at 37 °C and 220 rpm shaking for 30, 60, 120 and 240 minutes while for all other ASOs, they were treated for 120 min only. Subsequently, the cells were collected by centrifugation at 4 °C and 16,000 ×g for 5 min, resuspended in 1× Protein Loading Buffer (62.6 mM Tris–HCl pH 6.8, 2 % SDS, 0.1 mg/ml bromophenol blue, 15.4 mg/ml DTT, 10 % glycerol) and denatured at 95 °C for 10 min.
For detection of AcpP::3xFLAG protein levels, samples were separated on an 12% SDS-PAA gel and transferred onto a Nitrocellulose membrane via semi dry western blotting. The membrane was probed with an α-FLAG antibody (Sigma; 1:1,000 in 1x TBS-T containing 3% BSA) at 4 °C overnight. After washing in 1x TBS-T, the membrane was incubated with a secondary HRP-conjugated anti-mouse antibody (Thermo Scientific; 1:5,000 in 1x TBS-T containing 1% BSA) at RT for 1 hour. Excessive antibody was removed by repeated wash steps in 1x TBS-T and the membrane was developed by Amersham™ ECL Select™ Western Blotting Detection Reagent Kit (Cytiva).

[2] = test system: acpP::gfp reporter transcript; assay: In vitro translation (PURExpress) and anti-GFP western blot; assay type: biochemical, Salmonella enterica; set-up: key to Inhibition of translation in vitro: -: Effect strength is represented by additional (+) signs.; Effect strength is represented by additional (+) signs.; ++: Effect strength is represented by additional (+) signs.; +++: Effect strength is represented by additional (+) signs; details: unconjugated ASO; for GFP Expression (%): RNA 100 nM, 2 h 37 °C, relative to water control; for Inhibition of translation in vitro: summary grade; for Inhibition of in vitro translation of acpP::gfp (in words): western blot of AcpP-GFP fusion protein
Source text: For the generation of target RNA::gfp fusion constructs, we used a previously established protocol ([31]) and the oligonucleotides JVO-19760/JVO-19761 (Supplementary Table 1) to amplify the genomic region spanning nucleotides –40 to + 51 relative to the translational start codon of acpP. The sense oligonucleotide was fused to a T7 promoter sequence for subsequent transcription of the final fusion construct in vitro. The antisense oligonucleotide contained a 30 nt overlapping region with gfp for subsequent fusion PCR with full length gfp (pXG-10; JVO-19762/JVO-19763) (Supplementary Table 1). The PCR products were purified with NucleoSpin Gel and PCR Clean-up (Macherey-Nagel) according to the manufacturer’s instructions and DNA concentration was quantified with a NanoDrop spectrophotometer (A260 nm).
PCR products were used for T7 RNA polymerase-driven transcription in vitro using the MEGAscript T7 kit (Ambion/Thermo Scientific), according to the manufacturer’s instructions and analogous to our previous publication ([31]). The concentration of the RNA solution was quantified with Qubit (Fisher Scientific) and the expected product size and RNA integrity was verified on a 6% PAA, 7 M urea gel.
For in vitro translation of target RNA::gfp fusion constructs, the PURExpress® In Vitro Protein Synthesis Kit (New England Biolabs, E6800L) was used as described previously ([31]). Briefly, the final volume of each in vitro translation reaction was set to 10 µL. 1µL of different concentrations of ASOs ranging from 10 µM to 0.625 µM were added to 1 µL of in vitro transcribed heat-denatured RNA (1µM) to adjust the final RNA concentration to 100 nM. The mixtures were pre-incubated at 37 °C for 5 min. Then 4 µL of Solution A and 3 µL of Solution B were added to the pre-annealed mixtures. After 2 h at 37 °C, protein samples were denatured in 1x reducing protein loading buffer (62.6 mM Tris–HCl pH 6.8, 2 % SDS, 0.1 mg/mL bromphenol blue, 15.4 mg/mL DTT, 10 % glycerol) at 95 °C for 5 min.
To visualise in vitro translated proteins, samples were separated on SDS-PAA (12 % PAA) gels, with subsequent semi-dry western blot transfer on polyvinylidene fluoride (PVDF) membranes. Membranes were blocked with 10% skim milk (in 1x TBS-T) for 1 h and probed with anti-GFP antibody (1:1,000; Sigma-Aldrich) in 5 % skim milk (in 1x TBS-T) overnight at 4 °C. After washing in 1x TBS-T and incubation with an HRP-conjugated secondary antibody (1:5,000; ThermoScientific) in 1x TBS-T, the membrane was incubated with developing solution kit (Amersham™ ECL Select™ Western Blotting Detection Reagent) and protein levels were detected using an ImageQuant LAS 500 (GE Healthcare Life Sciences). Images were processed and band intensities quantified using ImageJ. Protein bands were normalized to the water control.

DNA-PTO: 10mer phosphorothioate-modified DNA antisense oligomer, sequence CTCATACTCT, targeting acpP (antisense dC*dT*dC*dA*dT*dA*dC*dT*dC*dT)
AcpP protein reduction [1]: - | GFP Expression (%) ([2]; acpP-RNA : ASO 1 : 0.625): 110.7% | GFP Expression (%) ([2]; acpP-RNA : ASO 1 : 1.25): 106.7% | GFP Expression (%) ([2]; acpP-RNA : ASO 1 : 2.5): 104.6% | GFP Expression (%) ([2]; acpP-RNA : ASO 1 : 5): 96.5% | GFP Expression (%) ([2]; acpP-RNA : ASO 1 : 10): 96.3% | Inhibition of translation in vitro [2]: -

LNA: 10mer 2'-4'-locked RNA antisense oligomer, sequence CTCATACTCT, targeting acpP (all LNA, backbone and methylation of C not given here)
AcpP protein reduction [1]: - | GFP Expression (%) ([2]; acpP-RNA : ASO 1 : 0.625): 97.8% | GFP Expression (%) ([2]; acpP-RNA : ASO 1 : 1.25): 38.1% | GFP Expression (%) ([2]; acpP-RNA : ASO 1 : 2.5): 8.0% | GFP Expression (%) ([2]; acpP-RNA : ASO 1 : 5): 6.5% | GFP Expression (%) ([2]; acpP-RNA : ASO 1 : 10): 4.5% | Inhibition of in vitro translation of acpP::gfp (in words) [2]: substantially blocking in vitro translation of acpP::gfp at 1.25x molar excess

PMO: 10mer phosphorodiamidate morpholino antisense oligomer, sequence CTCATACTCT, targeting acpP (all phosphorodiamidate morpholino (PMO))
AcpP protein level (in words) [1]: gradual depletion of AcpP, albeit less pronounced than PNA | AcpP protein reduction [1]: + | GFP Expression (%) ([2]; acpP-RNA : ASO 1 : 0.625): 117.0% | GFP Expression (%) ([2]; acpP-RNA : ASO 1 : 1.25): 104.6% | GFP Expression (%) ([2]; acpP-RNA : ASO 1 : 2.5): 92.7% | GFP Expression (%) ([2]; acpP-RNA : ASO 1 : 5): 60.4% | GFP Expression (%) ([2]; acpP-RNA : ASO 1 : 10): 28.3%

PNA: 10mer peptide nucleic acid antisense oligomer, sequence CTCATACTCT, targeting acpP (all peptide nucleic acid (PNA))
AcpP protein level (in words) [1]: depletion in AcpP levels can be observed from 60 min post treatment onwards | AcpP protein reduction [1]: ++ | GFP Expression (%) ([2]; acpP-RNA : ASO 1 : 0.625): 106.8% | GFP Expression (%) ([2]; acpP-RNA : ASO 1 : 1.25): 85.9% | GFP Expression (%) ([2]; acpP-RNA : ASO 1 : 2.5): 13.0% | GFP Expression (%) ([2]; acpP-RNA : ASO 1 : 5): 5.7% | GFP Expression (%) ([2]; acpP-RNA : ASO 1 : 10): 5.5% | Inhibition of in vitro translation of acpP::gfp (in words) [2]: substantially blocking in vitro translation of acpP::gfp at 1.25x molar excess

RNA-F: 10mer 2'-fluorinated RNA antisense oligomer, sequence CTCATACTCT, targeting acpP (all 2'-fluoro, backbone and T or U not given here)
AcpP protein reduction [1]: - | GFP Expression (%) ([2]; acpP-RNA : ASO 1 : 0.625): 96.1% | GFP Expression (%) ([2]; acpP-RNA : ASO 1 : 1.25): 97.5% | GFP Expression (%) ([2]; acpP-RNA : ASO 1 : 2.5): 85.0% | GFP Expression (%) ([2]; acpP-RNA : ASO 1 : 5): 69.5% | GFP Expression (%) ([2]; acpP-RNA : ASO 1 : 10): 58.3%

RNA-MOE: 10mer 2'-methoxyethylated RNA antisense oligomer, sequence CTCATACTCT, targeting acpP (all 2'-MOE, backbone and methylation of C not given here)
AcpP protein reduction [1]: - | GFP Expression (%) ([2]; acpP-RNA : ASO 1 : 0.625): 88.5% | GFP Expression (%) ([2]; acpP-RNA : ASO 1 : 2.5): 5.1% | GFP Expression (%) ([2]; acpP-RNA : ASO 1 : 5): 3.3% | GFP Expression (%) ([2]; acpP-RNA : ASO 1 : 10): 3.4% | Inhibition of in vitro translation of acpP::gfp (in words) [2]: substantially blocking in vitro translation of acpP::gfp at 1.25x molar excess

RNA-OMe: 10mer 2'-methylated RNA antisense oligomer, sequence CTCATACTCT, targeting acpP (all 2'-O-methyl, backbone and T or U not given here)
AcpP protein reduction [1]: - | GFP Expression (%) ([2]; acpP-RNA : ASO 1 : 0.625): 91.2% | GFP Expression (%) ([2]; acpP-RNA : ASO 1 : 1.25): 100.6% | GFP Expression (%) ([2]; acpP-RNA : ASO 1 : 2.5): 90.2% | GFP Expression (%) ([2]; acpP-RNA : ASO 1 : 5): 89.0% | GFP Expression (%) ([2]; acpP-RNA : ASO 1 : 10): 83.7% | Inhibition of translation in vitro [2]: +
